Measurements from patent US11760773B2, “Small molecule drug conjugates of gemcitabine monophosphate” (MaveriX Oncology, Inc., priority 2018, dated 2023).
Read-outs that look alike come from different tables or passages of the source.

Assays:
UT-SCC-8 = assay: Tumor cell proliferation (alamarBlue) cytotoxicity assay, UT-SCC-8; type: cell-based, human; details: Homo sapiens; UT-SCC-8, 72 hours treatment
Procedure: (§1) A tumor cell proliferation assay was used to determine cytotoxicity IC50 values for the phosphate prodrug Compounds 1-9, the parent non-phosphorylated SMDC parent compounds, and the effector (gemcitabine) across eight primary early-passage human head and neck squamous cell carcinoma cell lines including UT-SCC-5, UT-SCC-8, UT-SCC-9, UT-SCC-10, UT-SCC-14, UT-SCC-16A, UT-SCC-16B, and UT-SCC-24A.
(§2) UTSCC cells were seeded at 4000 cells/100 I/well on 96-well black clear-bottom tissue culture plate. Cells were incubated at 37° C. and 5% CO2 overnight to allow them to recover and re-attach. The next day cells were treated with the test compound (0-100 μM) for 72 hours. After treatment, cell proliferation was measured by Fluorescent quantitation of alamarBlue reagent. The alamarBlue assay incorporates a fluorometric/colorimetric growth indicator based on detection of metabolic activity. Specifically, resazurin, the active ingredient of alamarBlue reagent, is blue in color and virtually non-fluorescent. Upon entering cells, resazurin is reduced to resorufin, a compound that is red in color and highly fluorescent.
(§3) Continued cell growth maintains a reduced environment, therefore increasing the overall fluorescence and color of the media surrounding cells. The fluorescence intensity of alamarBlue reagent was directly proportional to cell number. To perform the alamarBlue assay, 10 I of alamarBlue reagent was added to each well and the plate was incubated at 37° C. for an additional 2 hour. Fluorescence intensity was measured at an excitation of 530 nm and an emission of 590 nm using a BioTek Synergy™ 2 microplate reader.
(§4) Cell proliferation assays in triplicate were performed at each concentration. The fluorescent intensity data were analyzed using the computer software, Graphpad Prism. In the absence of the compound, the fluorescent intensity (Ft) in each data set was defined as 100%. In the absence of cells, the fluorescent intensity (Fb) in each data set was defined as 0%. The percent cell in the presence of each compound was calculated according to the following equation: % cell=(F−Fb)/(Ft−Fb), where F=the fluorescent intensity in the presence of the compound, Fb=the fluorescent intensity in the absence of cells, and Ft=the fluorescent intensity in the absence of the compound. The values of % cell versus a series of compound concentrations were then plotted using non-linear regression analysis of Sigmoidal dose-response curve generated with the equation Y=B+(T−B)/1+10^((Log EC50-X)×Hill Slope) where Y=percent cell, B=minimum percent cell, T=maximum percent cell, X=logarithm of compound and Hill Slope=slope factor or Hill coefficient. The IC50 value was determined by the concentration causing a half-maximal percent activity.

UT-SCC-9 = assay: Tumor cell proliferation (alamarBlue) cytotoxicity assay, UT-SCC-9; type: cell-based, human; details: Homo sapiens; UT-SCC-9, 72 hours treatment
Procedure: as §1, §2, §3, §4

UT-SCC-10 = assay: Tumor cell proliferation (alamarBlue) cytotoxicity assay, UT-SCC-10; type: cell-based, human; details: Homo sapiens; UT-SCC-10, 72 hours treatment
Procedure: as §1, §2, §3, §4

UT-SCC-14 = assay: Tumor cell proliferation (alamarBlue) cytotoxicity assay, UT-SCC-14; type: cell-based, human; details: Homo sapiens; UT-SCC-14, 72 hours treatment
Procedure: as §1, §2, §3, §4

UT-SCC-16A = assay: Tumor cell proliferation (alamarBlue) cytotoxicity assay, UT-SCC-16A; type: cell-based, human; details: Homo sapiens, 72 hours treatment
Procedure: as §1, §2, §3, §4

UT-SCC-16B = assay: Tumor cell proliferation (alamarBlue) cytotoxicity assay, UT-SCC-16B; type: cell-based, human; details: Homo sapiens, 72 hours treatment
Procedure: as §1, §2, §3, §4

UT-SCC-24A = assay: Tumor cell proliferation (alamarBlue) cytotoxicity assay, UT-SCC-24A; type: cell-based, human; details: Homo sapiens, 72 hours treatment
Procedure: as §1, §2, §3, §4

[1] = Compound 1 and gemcitabine plasma PK in the male cynomolgus monkey (study h); type: in vivo; details: plasma, after iv Compound 1 5 mg/kg
Procedure: Objectives: to compare the plasma pharmacokinetics and stability of the Compound 1 with Int 1-4 and in plasma following a single intravenous infusion administration of Compound 1 at 5 mg/kg and 10 mg/kg with equimolar gemcitabine at 2.28 mg/kg in male cynomolgous monkeys.
PK measurements: compare PK parameters C0, CL, Vdss, Cmax, tmax, t1/2, AUC(0-t), AUC(0-inf), MRT(0-t), MRT(0-inf) for Compound 1 and Int 1-4 with gemcitabine.

[2] = Int 1-4 dog plasma PK (study j); type: in vivo; details: male beagle dog; for AUC(0-inf): read-out: AUC0-inf; for MRT inf: read-out: MRT0-inf; for MRT last: read-out: MRT0-last; for Vd: read-out: Vdss
Procedure: Objectives: to compare the plasma pharmacokinetics and stability of Int 1-4 in plasma following single intravenous infusion administration of t 1-4 at 10 mg/kg and 20 mg/kg in the male Beagle dog.

[3] = Liver microsomal stability, human; type: in vitro ADME; details: for microsomal CLint: human, liver microsomes
[4] = Metabolic stability in liver hepatocytes, human; type: in vitro ADME
[5] = Metabolic stability in liver hepatocytes, mouse; type: in vitro ADME
[6] = Metabolic stability in liver hepatocytes, monkey; type: in vitro ADME
[7] = after iv Int 1-4 10 mg/kg (study j)
[8] = after iv Int 1-4 20 mg/kg (study j)

AUC(0-t) [1]: 4380 ng·h/mL
half-life [1]: 45.6 min
AUC(0-inf) ([1]; read-out: AUC0-inf): 4400 ng·h/mL
MRT inf ([1]; read-out: MRT0-inf): 22.2 min
MRT last ([1]; read-out: MRT0-last): 21.6 min
AUC(0-t) [2, 7]: 4730 ng·h/mL
C0 [2, 7]: 60.5 µg/mL
clearance [2, 7]: 35.2 mL/min/kg
half-life [2, 7]: 32.4 min
AUC(0-inf) [2, 7]: 4740 ng·h/mL
MRT inf [2, 7]: 14.4 min
MRT last [2, 7]: 13.8 min
Vd [2, 7]: 0.504 L/kg
AUC(0-t) [2, 8]: 7930 ng·h/mL
C0 [2, 8]: 90.9 µg/mL
clearance [2, 8]: 43.3 mL/min/kg
half-life [2, 8]: 31.2 min
AUC(0-inf) [2, 8]: 7940 ng·h/mL
MRT inf [2, 8]: 13.8 min
MRT last [2, 8]: 13.2 min
Vd [2, 8]: 0.58 L/kg
half-life ([3]; human liver microsomes): 1850 min
Compound Remaining (% of 0 min) 0 min ([3]; human liver microsomes, 0 min): 100 % of 0 min
Compound Remaining (% of 0 min) 5 min ([3]; human liver microsomes, 5 min): 111 % of 0 min
Compound Remaining (% of 0 min) 15 min ([3]; human liver microsomes, 15 min): 94.0 % of 0 min
Compound Remaining (% of 0 min) 30 min ([3]; human liver microsomes, 30 min): 107 % of 0 min
Compound Remaining (% of 0 min) 45 min ([3]; human liver microsomes, 45 min): 99.9 % of 0 min
Compound Remaining (% of 0 min) control ([3]; human liver microsomes, control): 102 % of 0 min
microsomal CLint [3]: 0.747 µL/min/mg
microsomal CLint ([3]; text value): 0.75 µL/min/mg
Slope Mean ± SE [4]: −0.003031 ± 0.001361
half-life ([4]; read-out: t1/2 mean ± SE): 229 ± 103 min
Slope Mean ± SE [5]: −0.006655 ± 0.00081
half-life ([5]; read-out: t1/2 mean ± SE): 104 ± 12.7 min
Slope Mean ± SE [6]: −0.005018 ± 0.001425
half-life ([6]; negative value indicates compound is stable, read-out: t1/2 mean ± SE): 138 ± 39.2 min
Compound: COc1cc(OC)c2oc(COC(=O)Nc3ccn([C@@H]4O[C@H](CO)[C@@H](O)C4(F)F)c(=O)n3)cc2c1 [Int 1-4, (5,7-di(methoxy)benzofuran-2-yl)methyl (1-((2R,4R,5R)-3,3-difluoro-4-hydroxy-5-(hydroxymethyl)tetrahydrofuran-2-yl)-2-oxo-1,2-dihydropyrimidin-4-yl)carbamate]
IC50 (UT-SCC-8): 32 nM
IC50 (UT-SCC-9): 39 nM
IC50 (UT-SCC-10): 9 nM
IC50 (UT-SCC-14): 13 nM
IC50 (UT-SCC-16A): 138 nM
IC50 (UT-SCC-16B): 162 nM
IC50 (UT-SCC-24A): 20 nM
